Results as given in patent US20250304575A1, “COMPOUNDS AND PHARMACEUTICAL COMPOSITIONS THEREOF FOR THE TREATMENT OF NEURODEGENERATIVE DISORDERS” (Galapagos NV, priority 2022, published 2025).

System: Aβ1-42-injected mice (short-term spatial memory)
Assay: Alzheimer's disease mouse model using intrahippocampal injection of oligomers of amyloid beta; forced alternation Y-maze test
Type: in vivo, C57BL6 mice
Details: for Cumulative duration (sec) in the new arm of the Y-maze: Aβ1-42 (2 μL/side, 100 μM) injected mice, n = 12, daily treatment, Compounds 5 mg/kg p.o., Donepezil 1 mg/kg i.p., group mean, Aβ1-42 + vehicle group 78.9, sham 115.5
[1] = compared to Aβ1-42-injected, vehicle treated mice (group ID 2), 5 mg/kg p.o. daily

Description: This study evaluated the cognitive functions of the mice after a chronic administration of the compounds, after the ApO injury.
The forced alternation Y-maze test relies on the natural tendency of rodents to explore new environments and was used to evaluate short-term spatial memory and exploratory behavior of injured mice.
18-month-old male C57BL6 mice (Janvier Labs) were housed for acclimatation for 1 week in Neuro-Sys facilities and were maintained in a reversed 12 h light-dark cycle. The animals were group-housed (2-4 animals per cage) and maintained in room with controlled temperature (21-22° C.) and hygrometry (40-60%) and with food and water available ad libitum.
After one week of acclimatization, all the mice were subjected to a bilateral hippocampal stereotaxic surgery determined relative to the bregma according to the Paxinos and Franklin's mouse brain atlas(Yeung et al. 2020).
The Aβ1-42 preparation were done following the procedure described by Callizot (Callizot et al. 2013). Briefly, Aβ1-42 peptide (Bachem, 1071428, CAS #107761-42-2) was dissolved in the vehicle (0.5% Methylcellulose in water (w/v)), at an initial concentration of 100 μM. This solution was gently agitated for 3 days at 37° C. in the dark.
After agitation, the Aβ1-42 preparation were bilaterally injected into the stratum oriens, striatum pyramidal and striatum radiatum of the CA1 area of the hippocampus at three different depths within the CA1 region. Stereotaxic bilateral administration of 2 μL/side of Aβ1-42 preparation (100 μM, containing ˜15 mol/L of oligomers precisely measured by automatic WB), or vehicle, were bilaterally injected with a Hamilton syringe in the CA 1 area of the hippocampus (0.2 μL/min with an Elite Nanomite syringe pump).
All treatments started the day before the stereotaxic injections of A31-42 and were administrated daily until the last day of the experiment at which point different tissue samples were collected.
Test compounds were administered by oral gavage (p.o.).
Preparation with vehicle 1: The required amount of the test compound was weighted and placed in a glass tube. The compound was dissolved in 0.5% Methylcellulose in water (w/v) corresponding to 100% of the final volume and vortexed. The formulation (glass vial) was placed in an ultrasonic bath for 30 min.
Preparation with vehicle 2: The required amount of the test compound was weighted and placed in a glass tube. The compound was dissolved in a volume PEG200 corresponding to 25% of the final volume (at 4× concentration). The preparation was aliquoted in tubes protected from light and stored at 4° C. Before administration, a volume of MC (0.5%, w/v in sterile water) corresponding to 75% of the final volume (for 1× concentration) was added to the preparation and vortexed. The formulation (glass vial) was placed in an ultrasonic bath for homogenization. The glass vial containing the preparation was kept under agitation and protected from light until administration.
The Y-maze was used to assess short term memory (working memory) in mice. Spatial reference memory, which is underlined by the hippocampus, was tested by placing the test mice into the Y-maze with one arm closed off during training. After an intertrial interval, the mouse should remember which arm it has not explored previously and should visit this arm more often (Kraeuter, Guest, and Samyai 2019).

Row | Compound | Cumulative duration (sec) in the new arm of the Y-maze [s] | Effect on short-term spatial memory (Y-maze), day 7 post-surgery [1] | Effect on short-term spatial memory (Y-maze), day 14 post-surgery (day 14 post-surgery, compared to Aβ1-42-injected, vehicle treated mice (group ID 2), 5 mg/kg p.o. daily)
1 | CN(C)S(=O)(=O)C1CN(c2cc3nn(-c4ccc(F)cc4)cc3cn2)C1 [Compound 14, 1-(2-(4-fluorophenyl)-2H-pyrazolo[4,3-c]pyridin-6-yl)-N,N-dimethylazetidine-3-sulfonamide] | 112.5 | significant beneficial effects | significant beneficial effects
2 | CN(C)S(=O)(=O)C1CN(c2ccc3cn(-c4ccccc4)nc3n2)C1 [Compound 66, N,N-dimethyl-1-(2-phenyl-2H-pyrazolo[3,4-b]pyridin-6-yl)azetidine-3-sulfonamide] | 104.4 | significant beneficial effects | –
